In paper PMC8389614, “A Comparison of Acute Pharmacological Effects of Methylone and MDMA Administration in Humans and Oral Fluid Concentrations as Biomarkers of Exposure” (Biology, 2021):

Assays:
[1] = system: healthy poly-drug users; test: Subjective effects, VESSPA-SSE questionnaire; type: in vivo, humans; design: key to VESSPA PS Dunnet’s Test: “a” (times 0–1 h); “b” (times 0–2 h); “c” (times 0–4 h); not significant (NS); conditions: for VESSPA ACT (activity and energy) AUC0–4h / VESSPA ACT (activity and energy) Emax / VESSPA ANX (psychosomatic anxiety) AUC0–4h / VESSPA ANX (psychosomatic anxiety) Emax / VESSPA PS (psychotic symptoms) AUC0–4h / VESSPA PS (psychotic symptoms) Emax / VESSPA S (sedation) AUC0–4h / VESSPA S (sedation) Emax / VESSPA SOC (pleasure and sociability) AUC0–4h / VESSPA SOC (pleasure and sociability) Emax: oral, methylone 100–300 mg n=8, MDMA 75–100 mg n=6, baseline-adjusted, mean ± SD; for VESSPA ACT Dunnet’s Test / VESSPA ANX Dunnet’s Test / VESSPA PS Dunnet’s Test / VESSPA S Dunnet’s Test / VESSPA SOC Dunnet’s Test: time points significantly different from baseline
Source text: (§1) The study was designed as a non-controlled prospective observational study in a naturalistic setting with methylone and MDMA self-administration. The methodology, including procedures and evaluations, coincides with previous observational–naturalistic studies aimed at evaluating the acute effects of other NPS [38, 39, 40]. Six subjects (5 M, 1 F) self-administered MDMA and 8 subjects (5 M, 3 F) self-administered methylone. Each subject participated only in one session. Participants brought their own substance obtained from an unknown source, which was tested by Energy Control, a harm reduction organization that provides a drug checking service to drug users. Pills containing methylone and MDMA were analyzed by gas chromatography associated with mass spectrometry (GC/MS), a technique that traces the presence of the most frequent drugs of abuse, such as MDMA, cocaine, heroin, amphetamine and methamphetamine, LSD, and multiple NPS (methylone, mephedrone, and other synthetic cathinones, synthetic cannabinoids, tryptamines, among others).
(§2) In both sessions, participants selected the dose of methylone or MDMA according to their previous drug use experience. Doses of methylone could be selected from a range (75–300 mg) that was previously defined according to the consulted literature. The WHO Expert Committee on Drug Dependence (Thirty-Sixth Meeting, Geneva, Switzerland, 16–20 June 2014) established that 60 mg of methylone was the threshold dose and doses over 250 mg were often related to very strong activity. Some users have reported uses of 300 mg of methylone as a common dose [www.erowid.org] (accessed on 15 June 2021). The mean of the selected doses of MDMA was 87.50 mg (3 subjects ingested 75 mg (2 males and 1 female), 3 males 100 mg). In the other study session, methylone doses ranged from 100 to 300 mg, with a mean of 187.50 mg. Based on their dose selection, 1 male ingested 100 mg, 2 subjects 150 mg (1 male and 1 female), 4 subjects 200 mg (2 males and 2 females), and 1 male 300 mg.
(§3) The sessions were conducted in a naturalistic setting. Participants were allowed to talk, read, listen to music, or play games, except during the evaluation times. However, they were asked to refrain from talking about the effects of the substance. All the subjects were evaluated simultaneously at baseline, 1, 2, and 4 h after administration of methylone or MDMA, which occurred approximately at 16:00 h. At each time point, evaluations were followed in a specific order: physiological effects, oral fluid collection, and subjective effects scales and questionnaires.
(§4) Subjective effects were evaluated at baseline, 1, 2, and 4 h after self-administration using visual analogue scales (VAS), the Addiction Research Center Inventory (ARCI), and the Evaluation of Subjective Effects of Substances with Abuse Potential questionnaire (VESSPA-SSE).
The VESSPA-SSE is a questionnaire sensitive to subjective effects related to stimulants such as MDMA that includes six subscales: sedation (S), psychosomatic anxiety (ANX), changes in perception (CP), pleasure and sociability (SOC), activity and energy (ACT), and psychotic symptoms (PS).
Vital signs (SBP, DBP, and HR) and subjective effects (VAS, ARCI, and VESSPA-SSE) were baseline-adjusted. Maximum effects and the time in which maximum effects appeared were determined, and the area under the curve (AUC0–4h) was calculated with the trapezoidal rule.
Thirdly, to find possible significant changes from baseline, a Dunnett multiple comparison test was conducted to compare each time point with baseline in both drug conditions (0–1 h, 0–2 h, 0–4 h).

[2] = system: healthy poly-drug users; test: Subjective effects, visual analogue scales (VAS); type: in vivo, humans; design: key to VAS stimulated Dunnet’s Test / VAS change in lights Dunnet’s Test / VAS different body feeling Dunnet’s Test / VAS different surrounding Dunnet’s Test / VAS dizziness Dunnet’s Test / VAS headache Dunnet’s Test / VAS face flushing Dunnet’s Test: “a” (times 0–1 h); “b” (times 0–2 h); “c” (times 0–4 h); not significant (NS); conditions: for Time at which subjective effects in general reached maximum values / VAS change in lights AUC0–4h / VAS change in lights Emax / VAS content AUC0–4h / VAS content Emax / VAS different body feeling AUC0–4h / VAS different body feeling Emax / VAS different surrounding AUC0–4h / VAS different surrounding Emax / VAS dizziness AUC0–4h / VAS dizziness Emax / VAS face flushing AUC0–4h / VAS face flushing Emax / VAS good effects AUC0–4h / VAS good effects Emax / VAS headache AUC0–4h / VAS headache Emax / VAS high AUC0–4h / VAS high Emax / VAS intensity AUC0–4h / VAS intensity Emax / VAS stimulated AUC0–4h / VAS stimulated Emax / VAS change in lights Tmax: oral; for Time at which subjective effects in general reached maximum values: VAS, ARCI, VESSPA-SSE overall; for VAS change in lights AUC0–4h / VAS change in lights Emax / VAS content AUC0–4h / VAS content Emax / VAS different body feeling AUC0–4h / VAS different body feeling Emax / VAS different surrounding AUC0–4h / VAS different surrounding Emax / VAS dizziness AUC0–4h / VAS dizziness Emax / VAS face flushing AUC0–4h / VAS face flushing Emax / VAS good effects AUC0–4h / VAS good effects Emax / VAS headache AUC0–4h / VAS headache Emax / VAS high AUC0–4h / VAS high Emax / VAS intensity AUC0–4h / VAS intensity Emax / VAS stimulated AUC0–4h / VAS stimulated Emax / VAS change in lights Tmax: methylone 100–300 mg n=8, MDMA 75–100 mg n=6; for VAS change in lights AUC0–4h / VAS change in lights Emax / VAS content AUC0–4h / VAS content Emax / VAS different body feeling AUC0–4h / VAS different body feeling Emax / VAS different surrounding AUC0–4h / VAS different surrounding Emax / VAS dizziness AUC0–4h / VAS dizziness Emax / VAS face flushing AUC0–4h / VAS face flushing Emax / VAS good effects AUC0–4h / VAS good effects Emax / VAS headache AUC0–4h / VAS headache Emax / VAS high AUC0–4h / VAS high Emax / VAS intensity AUC0–4h / VAS intensity Emax / VAS stimulated AUC0–4h / VAS stimulated Emax: baseline-adjusted, mean ± SD; for VAS change in lights Tmax: median (min–max); for VAS change in lights Dunnet’s Test / VAS content Dunnet’s Test / VAS different body feeling Dunnet’s Test / VAS different surrounding Dunnet’s Test / VAS dizziness Dunnet’s Test / VAS face flushing Dunnet’s Test / VAS good effects Dunnet’s Test / VAS headache Dunnet’s Test / VAS high Dunnet’s Test / VAS intensity Dunnet’s Test / VAS stimulated Dunnet’s Test: time points significantly different from baseline
Source text: as §1, §2, §3, §4
Visual analogue scales (100 mm, from “not at all” to “extremely”) contained 30 items that subjects were asked to rate, such as: intensity, stimulated, high, good effects, liking, happiness, drunkenness, changes in colors, changes in shapes, changes in lights, hallucinations (seeing lights or spots), hallucinations (seeing of animals), changes in hearing, hallucinations (hearing sounds or voices), different or changed body feeling, unreal body feeling, changes in distances, different surroundings, unreal surroundings, confusion, fear, depression or sadness, drowsiness, dizziness, bad effects, headache, sickness, vertigo, shortness of breath, and face flushing.
Vital signs (SBP, DBP, and HR) and subjective effects (VAS, ARCI, and VESSPA-SSE) were baseline-adjusted. Maximum effects and the time in which maximum effects appeared were determined, and the area under the curve (AUC0–4h) was calculated with the trapezoidal rule. […]

## CNC(C)Cc1ccc2c(c1)OCO2 (stereo not shown) [MDMA, 3,4-methylenedioxymethamphetamine]
[1]
  VESSPA ACT (activity and energy) AUC0–4h: 32.58 ± 15.71
  VESSPA ACT (activity and energy) Emax: 13.33 ± 4.84 score
  VESSPA ANX (psychosomatic anxiety) AUC0–4h: 16.50 ± 8.82
  VESSPA ANX (psychosomatic anxiety) Emax: 6.67 ± 4.37 score
  VESSPA PS (psychotic symptoms) AUC0–4h: 2.25 ± 2.36
  VESSPA PS (psychotic symptoms) Emax: 1.33 ± 1.21 score
  VESSPA S (sedation) AUC0–4h: 5.92 ± 6.09
  VESSPA S (sedation) Emax: 2.83 ± 2.23 score
  VESSPA SOC (pleasure and sociability) AUC0–4h: 38.67 ± 17.84
  VESSPA SOC (pleasure and sociability) Emax: 14.50 ± 5.96 score
  VESSPA ACT Dunnet’s Test: a, b
  VESSPA ANX Dunnet’s Test: a, b
  VESSPA PS Dunnet’s Test: NS
  VESSPA S Dunnet’s Test: a, c
  VESSPA SOC Dunnet’s Test: a, b
[2]
  Time at which subjective effects in general reached maximum values: 1.5 h
  VAS change in lights AUC0–4h: 40.00 ± 53.35
  VAS change in lights Emax: 20.00 ± 25.11 mm
  VAS content AUC0–4h: 186.25 ± 52.39
  VAS content Emax: 74.50 ± 18.96 mm
  VAS different body feeling AUC0–4h: 95.25 ± 53.40
  VAS different body feeling Emax: 50.33 ± 22.59 mm
  VAS different surrounding AUC0–4h: 27.33 ± 39.71
  VAS different surrounding Emax: 17.33 ± 17.68 mm
  VAS dizziness AUC0–4h: 20.17 ± 20.68
  VAS dizziness Emax: 13.00 ± 9.84 mm
  VAS face flushing AUC0–4h: 89.33 ± 58.31
  VAS face flushing Emax: 45.00 ± 22.74 mm
  VAS good effects AUC0–4h: 167.67 ± 54.01
  VAS good effects Emax: 67.83 ± 16.51 mm
  VAS headache AUC0–4h: 10.58 ± 18.86
  VAS headache Emax: 5.83 ± 7.68 mm
  VAS high AUC0–4h: 136.92 ± 41.05
  VAS high Emax: 60.17 ± 14.96 mm
  VAS intensity AUC0–4h: 111.33 ± 36.34
  VAS intensity Emax: 47 ± 11.19 mm
  VAS stimulated AUC0–4h: 113.17 ± 40.92
  VAS stimulated Emax: 50.17 ± 17.12 mm
  VAS change in lights Tmax: 1.5 (0.0–4.0) h
  VAS change in lights Dunnet’s Test: NS
  VAS content Dunnet’s Test: a, b, c
  VAS different body feeling Dunnet’s Test: a
  VAS different surrounding Dunnet’s Test: a
  VAS dizziness Dunnet’s Test: NS
  VAS face flushing Dunnet’s Test: a
  VAS good effects Dunnet’s Test: a, b
  VAS headache Dunnet’s Test: NS
  VAS high Dunnet’s Test: a, b
  VAS intensity Dunnet’s Test: a, b
  VAS stimulated Dunnet’s Test: a, b

## CNC(C)C(=O)c1ccc2c(c1)OCO2 (stereo not shown) [Methylone, 3,4-methylenedioxymethcathinone]
[1]
  VESSPA ACT (activity and energy) AUC0–4h: 24.44 ± 17.87
  VESSPA ACT (activity and energy) Emax: 9.75 ± 6.25 score
  VESSPA ANX (psychosomatic anxiety) AUC0–4h: 17.94 ± 11.17
  VESSPA ANX (psychosomatic anxiety) Emax: 7.50 ± 4.69 score
  VESSPA PS (psychotic symptoms) AUC0–4h: 5.63 ± 5.58
  VESSPA PS (psychotic symptoms) Emax: 2.63 ± 2.20 score
  VESSPA S (sedation) AUC0–4h: 7.06 ± 6.45
  VESSPA S (sedation) Emax: 3.38 ± 2.50 score
  VESSPA SOC (pleasure and sociability) AUC0–4h: 31.31 ± 25.40
  VESSPA SOC (pleasure and sociability) Emax: 12.25 ± 8.31 score
  VESSPA ACT Dunnet’s Test: a, b
  VESSPA ANX Dunnet’s Test: b, c
  VESSPA PS Dunnet’s Test: b
  VESSPA S Dunnet’s Test: b, c
  VESSPA SOC Dunnet’s Test: a, b
[2]
  Time at which subjective effects in general reached maximum values: 2 h
  VAS change in lights AUC0–4h: 10.88 ± 11.85
  VAS change in lights Emax: 4.88 ± 4.82 mm
  VAS content AUC0–4h: 80.06 ± 82.59
  VAS content Emax: 35.25 ± 30.38 mm
  VAS different body feeling AUC0–4h: 44.13 ± 43.86
  VAS different body feeling Emax: 22.25 ± 20.60 mm
  VAS different surrounding AUC0–4h: 5.69 ± 10.39
  VAS different surrounding Emax: 4.38 ± 7.50 mm
  VAS dizziness AUC0–4h: 2.63 ± 3.02
  VAS dizziness Emax: 2.13 ± 2.53 mm
  VAS face flushing AUC0–4h: 64.50 ± 56.75
  VAS face flushing Emax: 31.25 ± 21.91 mm
  VAS good effects AUC0–4h: 74.06 ± 67.08
  VAS good effects Emax: 35.63 ± 30.63 mm
  VAS headache AUC0–4h: 23.63 ± 28.94
  VAS headache Emax: 20.25 ± 28.93 mm
  VAS high AUC0–4h: 55.06 ± 53.54
  VAS high Emax: 24.0 ± 21.28 mm
  VAS intensity AUC0–4h: 45.88 ± 43.66
  VAS intensity Emax: 20.0 ± 16.48 mm
  VAS stimulated AUC0–4h: 50.56 ± 47.38
  VAS stimulated Emax: 22.50 ± 18.81 mm
  VAS change in lights Tmax: 1.0 (0.0–2.0) h
  VAS change in lights Dunnet’s Test: a, b
  VAS content Dunnet’s Test: a, b
  VAS different body feeling Dunnet’s Test: NS
  VAS different surrounding Dunnet’s Test: NS
  VAS dizziness Dunnet’s Test: a
  VAS face flushing Dunnet’s Test: b
  VAS good effects Dunnet’s Test: a, b
  VAS headache Dunnet’s Test: c
  VAS high Dunnet’s Test: a, b
  VAS intensity Dunnet’s Test: a, b
  VAS stimulated Dunnet’s Test: b
